In patent US20160050895A1, “TRANSGENIC NON-HUMAN ORGANISMS WITH NON-FUNCTIONAL TSPO GENES” (AUSTRALIAN NUCLEAR SCIENCE AND TECHNOLOGY ORGANIZATION, priority 2013, published 2016):
“Also recorded” adds a separate entry of the source.

Legend:
[1] = biological target: TSPO (Mus musculus, UniProt P50637); assay: Film autoradiography of brain sections after facial nerve axotomy; format: binding; set-up: from tissue; host or cells: organs of living mice (adrenal gland, kidney, heart, liver, lung, brain); conditions: TSPO+/+ animals; after facial nerve axotomy
Description: (§1) Procedures for facial nerve axotomy were approved by the animal ethics committee at the University of Sydney. Animals were anaesthetised using Isoflurane anaesthesia. Animals were monitored for a combination of respiration, heart rate, oxygen saturation and temperature during procedures using a variety of monitoring equipment to ensure anaesthetic depth. The surgical process commenced when foot-pad or plantar reflex could no longer be elicited. The fur on the ipsilateral (right) side of the neck was shaved from the ear downwards, and the skin cleaned using 70% ethanol. A small incision (0.5-0.7 cm in length) overlying the musculature covering the stylomastoid foramen was made. The facial nerve was identified, isolated and then transected completely. The skin of incision was closed with heal-glue. […] The animals were euthanized with CO2 3 days after the axotomy and brain tissue, including facial nerve nuclei in the brain stem and cerebellum, was immediately dissected, snap-frozen in liquid nitrogen, and then stored in −80° C. freezer until the cryostat section.
A small incision (0.5-0.7 cm) in the skin 0.5 cm dorsal and lateral to the ear was made and the facial nerve transected under an operating microscope. The incision was closed with 3M™ Vetbond™ Tissue Adhesive (St. Paul, Minn., USA). […] Mice were monitored carefully and euthanized with CO2 three days after the operation. […]

[2] = system: TSPO; assay: as above; format: binding, mouse; conditions: TSPO-/- mice
Description: as §1
A small incision (0.5-0.7 cm) in the skin 0.5 cm dorsal and lateral to the ear was made and the facial nerve transected under an operating microscope. The incision was closed with 3M™ Vetbond™ Tissue Adhesive (St. Paul, Minn., USA). […] Mice were monitored carefully and euthanized with CO2 three days after the operation. Brains were dissected, placed in OCT, transferred to liquid nitrogen, and stored at −80° C. until cryo-sectioning.
Tissue sections from TSPO^+/+, TSPO^+/− and TSPO^−/− mice were incubated at room temperature for 20 min in 170 mM Tris-HCl pH 7.4 containing 1 nM [^3H]PK11195 (specific activity 84 Ci/mmol; Perkin Elmer, Waltham, Mass., USA), washed twice for 5 min in 170 mM Tris-HCl, rinsed with 3 dips in ice-cold MilliQ H2O, and dried. […] Displacement binding was carried out in the presence of PK11195 (10 μM), CLINDE (10 μM) and PBR-11 (10 μM).

[3] = system: TSPO; assay: Radioligand membrane saturation binding with 3H-PK11195; set-up: species or system mouse; conditions: testicular and kidney tissue; TSPO-/- mice compared to TSPO+/+ mice
Description: Tissue samples were homogenised with T25 digital Ultra-Turrax homogenizer (Ika, Wilmington, N.C., USA) at speed setting 5 or 20000 rpm in approximately 45 mL of ice-cold TRIS buffer (pH 7.4), collected by centrifugation at 48000 g and the supernatant was then discarded. The procedure was then immediately repeated, this acts as an extra wash step to remove any soluble interfering substances to radioligand binding (Byland et al. 1993). Following the second centrifugation and removal ofsupernatant the samples were resuspended in approximately 50 volumes of ice-cold TRIS buffer (pH 7.4). Samples were aliquoted stored in −80° C. until required.
For TSPO knock-out mice studies, radioligand binding was performed using 3H-PK11195 racemate across a range of concentrations (FIG. 4). PK11195 is a TSPO specific probe. Total and non-specific binding was determined through 8 concentrations of 3H-PK11195 ranging from 0.56 nM to 20 nM. Non-specific binding was determined by the addition of 5 μM PK11195 to all concentrations of 3H-PK11195. […]
Organs were homogenised, washed twice in ice-cold 50 mM Tris-HCl (pH 7.4) by centrifugation at 48000×g, resuspended in 50 volumes of ice-cold 50 mM Tris-HCl, and protein concentration was determined using a BCA protein assay kit (Thermo Fisher Scientific). […] Non-specific binding was determined with 5 μM PK11195. […]

CC[C@@H](C)N(C)C(=O)c1cc2ccccc2c(-c2ccccc2Cl)n1 [[^3H]PK11195]
TSPO ligand binding in the injured facial nucleus [1]: localised induction of TSPO ligand binding
TSPO ligand binding in the injured facial nucleus ([2]; after facial nerve axotomy, activated microglia present): no binding; also recorded: not associated with an increase in the binding
selectivity in pathologically changed tissue ([2]; injured facial nucleus): high selectivity; also recorded: holds true
Specific binding using [3H]PK11195 [3]: close to zero signal
